From ChEMBL document CHEMBL1129917, “Structure-based design of novel, dipeptide ligands targeting the pp60Src SH2 domain” (Bioorg Med Chem Lett, 1997) come the findings set out here.

The experiment has as its target Proto-oncogene tyrosine-protein kinase Src (Homo sapiens, UniProt P12931). The experiment can be described thus: Inhibition of [125I]-labeled phosphopeptide binding to a Src protein tyrosine kinase SH2 domain.

Sequence of Proto-oncogene tyrosine-protein kinase Src (P12931 2-536 limits assumed): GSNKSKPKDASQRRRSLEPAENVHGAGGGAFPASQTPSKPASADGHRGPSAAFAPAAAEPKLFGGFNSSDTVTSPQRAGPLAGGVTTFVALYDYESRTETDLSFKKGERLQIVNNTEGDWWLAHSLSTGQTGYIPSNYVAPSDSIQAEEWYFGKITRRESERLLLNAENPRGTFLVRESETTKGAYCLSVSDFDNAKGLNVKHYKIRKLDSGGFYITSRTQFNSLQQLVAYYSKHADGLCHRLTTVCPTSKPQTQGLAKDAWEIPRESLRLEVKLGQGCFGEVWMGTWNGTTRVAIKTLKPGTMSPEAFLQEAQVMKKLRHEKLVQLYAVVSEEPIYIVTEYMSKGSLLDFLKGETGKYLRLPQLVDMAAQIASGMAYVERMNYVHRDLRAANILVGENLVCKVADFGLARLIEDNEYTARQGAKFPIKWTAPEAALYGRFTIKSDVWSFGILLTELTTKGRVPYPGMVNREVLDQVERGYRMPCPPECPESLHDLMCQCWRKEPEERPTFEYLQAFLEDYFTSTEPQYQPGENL

Take `CC(=O)N[C@@H](Cc1ccc(OP(=O)(O)O)cc1)C(=O)N[C@@H](C)C(=O)NCCCc1ccccc1`: the IC50 came out at 15 µM.

On to `CC(=O)N[C@@H](Cc1ccc(OP(=O)(O)O)cc1)C(=O)NCC(=O)NCCCc1ccccc1`, for which the IC50 is approximately 46 µM.

As for `CC(=O)N[C@@H](Cc1ccc(OP(=O)(O)O)cc1)C(=O)N[C@@H](C)C(=O)N(CCCC(=O)O)CCCc1ccccc1`, the IC50 was determined as 6.4 µM.

`CC(=O)N[C@@H](Cc1ccc(OP(=O)(O)O)cc1)C(=O)N[C@@H](CCC(=O)O)C(=O)N(C)CCCc1ccccc1` gave an IC50 of 3.5 µM.

In the case of `CC(=O)N[C@@H](Cc1ccc(OP(=O)(O)O)cc1)C(=O)N[C@@H](CCC(=O)O)C(=O)N(CCCC(=O)O)CCCc1ccccc1`, the IC50 turned out to be 2 µM.

In turn, `CCC[C@H](NC(=O)[C@H](Cc1ccc(OP(=O)(O)O)cc1)NC(C)=O)C(=O)NCCCc1ccccc1` returned an IC50 of 12 µM.

For the compound `CCc1ccccc1CCNC(=O)[C@H](CCC(=O)O)NC(=O)[C@H](Cc1ccc(OP(=O)(O)O)cc1)NC(C)=O`, the IC50 came to 4.6 µM.

`CC(=O)N[C@@H](Cc1ccc(OP(=O)(O)O)cc1)C(=O)N[C@@H](Cc1ccc(OP(=O)(O)O)cc1)C(=O)NCCCc1ccccc1` showed an IC50 of 3.9 µM.

As to `CCCC(NC(=O)[C@H](Cc1ccc(OP(=O)(O)O)cc1)NC(C)=O)C(=O)N(CCCC(=O)O)CCCc1ccccc1` (stereo partly specified), the IC50 stood at 4.3 µM.

Compound `CC(=O)N[C@@H](Cc1ccc(OP(=O)(O)O)cc1)C(=O)NCC(=O)N(CCCC(=O)O)CCCc1ccccc1` gave an IC50 of 14 µM.

`CC(=O)N[C@@H](Cc1ccc(OP(=O)(O)O)cc1)C(=O)N[C@@H](CCC(=O)O)C(=O)NCCC1=CC=CC2CCCCC12` (stereo partly specified) returned an IC50 of 3.2 µM.

`CC(=O)N[C@@H](Cc1ccc(OP(=O)(O)O)cc1)C(=O)N[C@@H](Cc1ccc(OP(=O)(O)O)cc1)C(=O)N[C@@H](Cc1ccc(OP(=O)(O)O)cc1)C(N)=O` came in with an IC50 of 0.24 µM.

Regarding `CC(=O)N[C@@H](Cc1ccc(OP(=O)(O)O)cc1)C(=O)N[C@H](C(=O)NCCCc1ccccc1)C(C)C`, the IC50 was approximately 30 µM.

`CC(=O)N[C@@H](Cc1ccc(OP(=O)(O)O)cc1)C(=O)N[C@@H](CCC(=O)O)C(=O)N[C@@H](CCC(N)=O)Cc1cccc2ccccc12` came in with an IC50 of 2.3 µM.

In turn, `CC(=O)N[C@@H](Cc1ccc(OP(=O)(O)O)cc1)C(=O)N[C@@H](CCC(=O)O)C(=O)NCCc1cccc2ccccc12` gave an IC50 of 4.8 µM.

Regarding `CC(=O)N[C@@H](Cc1ccc(OP(=O)(O)O)cc1)C(=O)N[C@@H](CCC(=O)O)C(=O)NCCc1ccccc1`, the concentration for half-maximal inhibition (IC50) amounted to 9.1 µM.
